Assay results as given in patent US20220000117A1, “METHOD FOR CONTROLLING DISEASES IN SMALL GRAIN CEREALS, SEED OF SMALL GRAIN CEREALS, AND METHOD FOR SUPPRESSING LODGING DAMAGE IN SMALL GRAIN CEREALS” (KUMIAI CHEMICAL INDUSTRY CO., LTD., priority 2019, published 2022).

How the values were obtained:
powdery mildew = assay: Test Example 9: control test of wheat powdery mildew, cup in greenhouse, inoculated, Norin No. 61 (Tables 10 to 14); type: in vivo, Blumeria graminis; design: key to Degree of Disease Occurrence: Σ(index×leaves)/(4×leaves investigated)×100; 0 = no disease, 100 = max
Description: (§1) Degree of Disease Occurrence=Σ(Index×Number of Leaves of Index)/(4×Number of Investigated Leaves)×100 (1)
Seed of wheat (variety: Norin No. 61) was used, and 100 ml of suspension waters each containing the compound shown in Table 10 at an amount shown in […] (synthesis was performed in accordance with a known method, a solution dissolved in DMSO or formulated 10% wettable powder was used) were prepared. The seed having a mass of 1 kg of wheat was mixed into the suspension water with a chemical treated amount shown in Table 10, and air-dried, and then, 5 seeds were sown in a plastic cup having a diameter of 6 cm containing river sand and managed in a greenhouse. In Comparative Examples, 20 ml of the suspension water of an active ingredient, which had been adjusted to have a concentration shown in Table 10, was sprayed in a frame of 45 cm×45 cm in which a pot of wheat seedlings was placed (corresponding to 1000 L/ha) 14 days after seeding. On day 14 after seeding, conidiospores of powdery mildew were sifted over leaves of wheat seedlings and inoculated onto the leaves (after the sprayed liquid was dried in the case of Comparative Examples), a lesion area ratio of powdery mildew in a first leaf was investigated 21 days after seeding according to the criteria in Table 1, and the degree of disease occurrence was calculated by the above calculation formula (1).

septoria leaf blotch = assay: Test Example 10: control test of septoria leaf blotch of wheat, cup in greenhouse, inoculated, variety ARKEOS (Tables 15 to 19); type: in vivo, Septoria tritici; settings: Table 19; for Degree of Disease Occurrence: untreated 45.0; for Disease Leaf Rate (%): untreated 98.0
Description: as §1
Seed of wheat (variety: ARKEOS) was used, and 100 ml of suspension waters each containing the compound shown in Table 15 at an amount shown in Table 15 (synthesis was performed in accordance with a known method, a liquid dissolved in a small amount of DMSO or formulated 10% wettable powder was used) were prepared. Seed having a mass of 1 kg was mixed into the suspension water with a rate shown in Examples of Table 15, and air-dried, and then, 5 seeds were sown in a plastic cup having a diameter of 6 cm containing mixed soil of river sand and horticultural soil and managed in a greenhouse. In Comparative Examples, 20 ml of suspension water of an active ingredient, which had been adjusted to have a concentration shown in Table 15 to 19, was sprayed in a frame of 45 cm×45 cm in which a pot of wheat seedlings was placed (corresponding to 1000 L/ha) 14 days after seeding. On day 14 after seeding, a spore suspension in which conidiospores of septoria leaf blotch are suspended was sprayed and inoculated on leaves of wheat seedlings (after the sprayed liquid was dried in the case of Comparative Examples), a lesion area ratio of septoria leaf blotch in a second leaf was investigated approximately 35 days after seeding according to the criteria in Table 1, and the degree of disease occurrence was calculated by the above calculation formula (1).

[1] = Table 12 run (different day), Foliage Treatment, spray 5 ppm (5 g/ha)
[2] = Table 12 run (different day), Foliage Treatment, spray 10 ppm (10 g/ha)
[3] = Table 12 run (different day), Foliage Treatment, spray 50 ppm (50 g/ha)
[4] = Table 12 run (different day), Seed Treatment 0.05 g/Seed 1 kg (5 g/ha)
[5] = Table 12 run (different day), Seed Treatment 0.1 g/Seed 1 kg (10 g/ha)
[6] = Table 12 run (different day), Seed Treatment 0.5 g/Seed 1 kg (50 g/ha)
[7] = Foliage Treatment, spray 50 ppm suspension water (corresponding to 50 g/ha) 14 days after seeding
[8] = Seed Treatment, 0.5 g/Seed 1 kg (corresponding to 50 g/ha)
[9] = Table 10 run, Foliage Treatment, spray 5 ppm (5 g/ha) day 14, first leaf, 21 days after seeding
[10] = Table 10 run, Foliage Treatment, spray 10 ppm (10 g/ha) day 14, first leaf, 21 days after seeding
[11] = Table 10 run, Seed Treatment 0.05 g/Seed 1 kg (5 g/ha), first leaf, 21 days after seeding
[12] = Table 10 run, Seed Treatment 0.1 g/Seed 1 kg (10 g/ha), first leaf, 21 days after seeding
[13] = Foliage Treatment, spray 10 ppm suspension water (corresponding to 10 g/ha) 14 days after seeding
[14] = Seed Treatment, 0.1 g/Seed 1 kg (corresponding to 10 g/ha)
[15] = Table 11 run (different day), Foliage Treatment, spray 50 ppm (50 g/ha)
[16] = Table 11 run (different day), Seed Treatment 0.5 g/Seed 1 kg (50 g/ha)
[17] = Table 13 run (different day), Foliage Treatment, spray 5 ppm (5 g/ha)
[18] = Table 13 run (different day), Foliage Treatment, spray 10 ppm (10 g/ha)
[19] = Table 13 run (different day), Foliage Treatment, spray 50 ppm (50 g/ha)
[20] = Table 13 run (different day), Seed Treatment 0.05 g/Seed 1 kg (5 g/ha)
[21] = Table 13 run (different day), Seed Treatment 0.1 g/Seed 1 kg (10 g/ha)
[22] = Table 13 run (different day), Seed Treatment 0.5 g/Seed 1 kg (50 g/ha)
[23] = Table 11 run (different day), Foliage Treatment, spray 10 ppm (10 g/ha)
[24] = Table 11 run (different day), Seed Treatment 0.1 g/Seed 1 kg (10 g/ha)

Structure (SMILES): CCNC(=N)c1snc(Cl)c1Cl [Compound (15)]
- Degree of Disease Occurrence (powdery mildew; [1]): 66.7
- Disease Leaf Rate (%) (powdery mildew; [1]): 100.0%
- Degree of Disease Occurrence (powdery mildew; [2]): 80.0
- Disease Leaf Rate (%) (powdery mildew; [2]): 93.3%
- Degree of Disease Occurrence (powdery mildew; [3]): 38.3
- Disease Leaf Rate (%) (powdery mildew; [3]): 60.0%
- Degree of Disease Occurrence (powdery mildew; [4]): 40.8
- Disease Leaf Rate (%) (powdery mildew; [4]): 70.0%
- Degree of Disease Occurrence (powdery mildew; [5]): 31.3
- Disease Leaf Rate (%) (powdery mildew; [5]): 60.0%
- Degree of Disease Occurrence (powdery mildew; [6]): 11.9
- Disease Leaf Rate (%) (powdery mildew; [6]): 34.4%
- Degree of Disease Occurrence (powdery mildew; Table 14, Foliage Treatment, spray 50 ppm suspension water (corresponding to 50 g/ha) 14 days after seeding, untreated 70.0): 47.9
- Disease Leaf Rate (%) (powdery mildew; Table 14, Foliage Treatment, spray 50 ppm suspension water (corresponding to 50 g/ha) 14 days after seeding, untreated 100.0): 100.0%
- Degree of Disease Occurrence (powdery mildew; Table 14, Seed Treatment, 0.5 g/Seed 1 kg (corresponding to 50 g/ha), first leaf, 21 days after seeding, untreated 70.0): 13.1
- Disease Leaf Rate (%) (powdery mildew; Table 14, Seed Treatment, 0.5 g/Seed 1 kg (corresponding to 50 g/ha), first leaf, 21 days after seeding, untreated 100.0): 37.5%
- Degree of Disease Occurrence (septoria leaf blotch; [7]): 39.2
- Disease Leaf Rate (%) (septoria leaf blotch; [7]): 93.6%
- Degree of Disease Occurrence (septoria leaf blotch; [8]): 10.3
- Disease Leaf Rate (%) (septoria leaf blotch; [8]): 41.3%

Structure (SMILES): NC(=O)c1snc(Cl)c1Cl [Compound (9)]
- Degree of Disease Occurrence (powdery mildew; [9]): 57.3
- Disease Leaf Rate (%) (powdery mildew; [9]): 100.0%
- Degree of Disease Occurrence (powdery mildew; [10]): 63.5
- Disease Leaf Rate (%) (powdery mildew; [10]): 100.0%
- Degree of Disease Occurrence (powdery mildew; [11]): 38.3
- Disease Leaf Rate (%) (powdery mildew; [11]): 96.9%
- Degree of Disease Occurrence (powdery mildew; [12]): 33.0
- Disease Leaf Rate (%) (powdery mildew; [12]): 83.9%

Structure (SMILES): N=C(OCc1ccccc1)c1snc(Cl)c1Cl [Compound (12)]
- Degree of Disease Occurrence (powdery mildew; Table 14, Foliage Treatment, spray 10 ppm suspension water (corresponding to 10 g/ha) 14 days after seeding, untreated 70.0): 56.9
- Disease Leaf Rate (%) (powdery mildew; Table 14, Foliage Treatment, spray 10 ppm suspension water (corresponding to 10 g/ha) 14 days after seeding, untreated 100.0): 94.4%
- Degree of Disease Occurrence (powdery mildew; Table 14, Foliage Treatment, spray 100 ppm suspension water (corresponding to 100 g/ha) 14 days after seeding, untreated 70.0): 47.9
- Disease Leaf Rate (%) (powdery mildew; Table 14, Foliage Treatment, spray 100 ppm suspension water (corresponding to 100 g/ha) 14 days after seeding, untreated 100.0): 93.3%
- Degree of Disease Occurrence (powdery mildew; Table 14, Seed Treatment, 0.1 g/Seed 1 kg (corresponding to 10 g/ha), first leaf, 21 days after seeding, untreated 70.0): 21.3
- Disease Leaf Rate (%) (powdery mildew; Table 14, Seed Treatment, 0.1 g/Seed 1 kg (corresponding to 10 g/ha), first leaf, 21 days after seeding, untreated 100.0): 75.8%
- Degree of Disease Occurrence (powdery mildew; Table 14, Seed Treatment, 1 g/Seed 1 kg (corresponding to 100 g/ha), first leaf, 21 days after seeding, untreated 70.0): 34.1
- Disease Leaf Rate (%) (powdery mildew; Table 14, Seed Treatment, 1 g/Seed 1 kg (corresponding to 100 g/ha), first leaf, 21 days after seeding, untreated 100.0): 87.5%
- Degree of Disease Occurrence (septoria leaf blotch; [13]): 53.3
- Disease Leaf Rate (%) (septoria leaf blotch; [13]): 99.3%
- Degree of Disease Occurrence (septoria leaf blotch; [7]): 39.2
- Disease Leaf Rate (%) (septoria leaf blotch; [7]): 93.6%
- Degree of Disease Occurrence (septoria leaf blotch; [14]): 26.3
- Disease Leaf Rate (%) (septoria leaf blotch; [14]): 75.0%
- Degree of Disease Occurrence (septoria leaf blotch; [8]): 10.3
- Disease Leaf Rate (%) (septoria leaf blotch; [8]): 41.3%

Structure (SMILES): O=C(OCc1snc(Cl)c1Cl)c1ccccc1 [Compound (5)]
- Degree of Disease Occurrence (powdery mildew; [15]): 90.5
- Disease Leaf Rate (%) (powdery mildew; [15]): 100%
- Degree of Disease Occurrence (powdery mildew; [16]): 57.0
- Disease Leaf Rate (%) (powdery mildew; [16]): 95%
- Degree of Disease Occurrence (powdery mildew; [17]): 100.0
- Disease Leaf Rate (%) (powdery mildew; [17]): 100.0%
- Degree of Disease Occurrence (powdery mildew; [18]): 62.4
- Disease Leaf Rate (%) (powdery mildew; [18]): 100.0%
- Degree of Disease Occurrence (powdery mildew; [19]): 86.7
- Disease Leaf Rate (%) (powdery mildew; [19]): 100.0%
- Degree of Disease Occurrence (powdery mildew; [20]): 66.1
- Disease Leaf Rate (%) (powdery mildew; [20]): 100.0%
- Degree of Disease Occurrence (powdery mildew; [21]): 58.1
- Disease Leaf Rate (%) (powdery mildew; [21]): 100.0%
- Degree of Disease Occurrence (powdery mildew; [22]): 40.6
- Disease Leaf Rate (%) (powdery mildew; [22]): 95.0%

Structure (SMILES): CC(=O)OCc1snc(Cl)c1Cl [Compound (4)]
- Degree of Disease Occurrence (powdery mildew; [23]): 100.0
- Disease Leaf Rate (%) (powdery mildew; [23]): 100%
- Degree of Disease Occurrence (powdery mildew; [15]): 90.6
- Disease Leaf Rate (%) (powdery mildew; [15]): 100%
- Degree of Disease Occurrence (powdery mildew; [24]): 74.1
- Disease Leaf Rate (%) (powdery mildew; [24]): 100%
- Degree of Disease Occurrence (powdery mildew; [16]): 57.2
- Disease Leaf Rate (%) (powdery mildew; [16]): 100%
- Degree of Disease Occurrence (powdery mildew; [18]): 81.7
- Disease Leaf Rate (%) (powdery mildew; [18]): 100.0%
- Degree of Disease Occurrence (powdery mildew; [19]): 71.5
- Disease Leaf Rate (%) (powdery mildew; [19]): 100.0%
- Degree of Disease Occurrence (powdery mildew; [21]): 47.9
- Disease Leaf Rate (%) (powdery mildew; [21]): 100.0%
- Degree of Disease Occurrence (powdery mildew; [22]): 49.1
- Disease Leaf Rate (%) (powdery mildew; [22]): 100.0%
